Assay [1] has as its target T1, VLA-4 (α4β1 integrin) (Homo sapiens, UniProt P05556+P13612). Nature of the assay: biochemical. Format: binding. The method, then:
VLA-4/VCAM-1 Screening Assay
VLA-4 antagonist activity, defined as ability to compete for binding to immobilized VCAM-1, was quantitated using a solid-phase, dual antibody ELISA. VLA-4 (α4β1 integrin) bound to VCAM-1 is detected by a complex of anti-integrin β1 antibody: HRP-conjugated anti-mouse IgG: chromogenic substrate (K-Blue). Initially, this entailed coating 96 well plates (Nunc Maxisorp) with recombinant human VCAM-1 (0.4 μg in 100 μl PBS), sealing each plate and then allowing the plates to stand at 4° C. for Å 18 hr. […] On the day of assay, all plates are washed twice with VCAM Assay Buffer (200 μl/well of 50 mM Tris-HCl. 100 mM NaCl, 1 mM MnCl2), 0.05% Tween 20; pH 7.4). Test compounds are dissolved in 100% DMSO and then diluted 1:20 in VCAM Assay Buffer supplemented with 1 mg/mL BSA (i.e., final DMSO=5%). […] 100 μl per well of each dilution is added to the VCAM-coated plates, followed by 10 μl of Ramos cell-derived VLA-4. These plates are sequentially mixed on a platform shaker for 1 min, incubated for 2 hr at 37° C., and then washed four times with 200 μl/well VCAM Assay Buffer. 100 μl of mouse anti-human integrin β1 antibody is added to each well (0.6 μg/mL in VCAM Assay Buffer+1 mg/mL BSA) and allowed to incubate for 1 hr at 37° C. At the conclusion of this incubation period, all plates are washed four times with VCAM Assay Buffer (200 μl/well). A corresponding second antibody, HRP-conjugated goat anti-mouse IgG (100 μl per well @1:800 dilution in VCAM Assay Buffer+1 mg/mL BSA), is then added to each well, followed by a 1 hr incubation at room temperature and concluded by three washes (200 μl/well) with VCAM Assay Buffer. Color development is initiated by addition of 100 μl K-Blue per well (15 min incubation, room temp) and terminated by addition of 100 μl Red Stop Buffer per well. […] Results are calculated as % inhibition of total binding (i.e. VLA-4+VCAM-1 in the absence of test compound).

Assay [2] concerns the target T1, VLA-4 (α4β1 integrin). As to the kind of experiment: cell-based. Format: cell-based. From the text: Ramos (VLA-4)/VCAM-1 Cell-Based Screening Assay Protocol
Calcein-AM was purchased from Molecular Probes Inc.
VLA-4 (α4β1 integrin) antagonist activity, defined as ability to compete with cell-surface VLA-4 for binding to immobilized VCAM-1, was quantitated using a Ramos-VCAM-1 cell adhesion assay. Ramos cells bearing cell-surface VLA-4, were labeled with a fluorescent dye (Calcein-AM) and allowed to bind VCAM-1 in the presence or absence of test compounds.
Initially, this entailed coating 96 well plates (Nunc Maxisorp) with recombinant human VCAM-1 (100 ng in 100 μl PBS), sealing each plate and allowing the plates to stand at 4° C. for Å 18 hr. The VCAM-coated plates were subsequently washed twice with 0.05% Tween-20 in PBS, and then blocked for 1 hr (room temperature) with 200 μl of Blocking Buffer (1% BSA/0.02% thimerosal) to reduce non-specific binding. Following the incubation with Blocking Buffer, plates were inverted, blotted and the remaining buffer aspirated. Each plate was then washed with 300 μl PBS, inverted and the remaining PBS aspirated.
Test compounds were dissolved in 100% DMSO and then diluted 1:25 in VCAM Cell Adhesion Assay Buffer (4 mM CaCl2, 4 mM MgCl2 in 50 mM TRIS-HCl, pH 7.5) (final DMSO=4%). […] 100 μl/well of each dilution was added to the VCAM-coated plates, followed by 100 μl of Ramos cells (200,000 cells/well in 1% BSA/PBS). […] Plates were inverted to remove non-adherent cells, blotted and 300 μl/well PBS added. Plates were again inverted, blotted and the remaining buffer gently aspirated. 100 μl Lysis Buffer (0.1% SDS in 50 mM TRIS-HCl, pH 8.5) was added to each well and agitated for 2 min on a rotary shaking platform.

For another assay, the target named is VLA-4 (Homo sapiens, UniProt P05556+P13612). Nature of the assay: IC50 of table 7, assay not given. The note with it: table 7, Examples 79-84; assay not stated.
VLA-4, sequence (P13612 34-1032): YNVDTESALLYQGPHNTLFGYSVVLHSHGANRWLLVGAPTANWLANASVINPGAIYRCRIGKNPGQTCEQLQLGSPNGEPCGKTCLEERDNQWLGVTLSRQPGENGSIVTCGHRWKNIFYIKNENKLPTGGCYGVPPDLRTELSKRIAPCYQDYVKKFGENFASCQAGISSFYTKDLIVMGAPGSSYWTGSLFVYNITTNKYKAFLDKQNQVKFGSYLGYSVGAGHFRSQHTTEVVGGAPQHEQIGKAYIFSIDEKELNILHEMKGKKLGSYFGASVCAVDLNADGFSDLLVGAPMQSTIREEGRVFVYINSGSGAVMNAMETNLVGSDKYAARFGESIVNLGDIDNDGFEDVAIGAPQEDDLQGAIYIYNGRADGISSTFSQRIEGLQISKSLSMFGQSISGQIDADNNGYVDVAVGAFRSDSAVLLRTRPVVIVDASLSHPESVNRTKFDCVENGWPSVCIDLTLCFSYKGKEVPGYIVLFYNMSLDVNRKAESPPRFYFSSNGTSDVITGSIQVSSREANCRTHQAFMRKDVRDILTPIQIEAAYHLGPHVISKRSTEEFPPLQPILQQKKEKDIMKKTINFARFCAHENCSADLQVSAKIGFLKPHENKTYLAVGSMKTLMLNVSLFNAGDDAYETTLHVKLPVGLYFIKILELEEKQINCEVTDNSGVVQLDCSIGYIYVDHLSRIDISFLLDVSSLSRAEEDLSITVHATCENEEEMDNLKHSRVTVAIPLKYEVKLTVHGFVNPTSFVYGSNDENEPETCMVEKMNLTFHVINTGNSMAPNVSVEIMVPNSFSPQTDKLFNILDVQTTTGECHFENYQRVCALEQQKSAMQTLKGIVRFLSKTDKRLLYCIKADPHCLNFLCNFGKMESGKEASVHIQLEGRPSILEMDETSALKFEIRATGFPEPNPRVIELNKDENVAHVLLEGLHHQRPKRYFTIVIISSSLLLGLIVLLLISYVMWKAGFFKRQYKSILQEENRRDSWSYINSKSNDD
VLA-4, sequence (P05556 21-798): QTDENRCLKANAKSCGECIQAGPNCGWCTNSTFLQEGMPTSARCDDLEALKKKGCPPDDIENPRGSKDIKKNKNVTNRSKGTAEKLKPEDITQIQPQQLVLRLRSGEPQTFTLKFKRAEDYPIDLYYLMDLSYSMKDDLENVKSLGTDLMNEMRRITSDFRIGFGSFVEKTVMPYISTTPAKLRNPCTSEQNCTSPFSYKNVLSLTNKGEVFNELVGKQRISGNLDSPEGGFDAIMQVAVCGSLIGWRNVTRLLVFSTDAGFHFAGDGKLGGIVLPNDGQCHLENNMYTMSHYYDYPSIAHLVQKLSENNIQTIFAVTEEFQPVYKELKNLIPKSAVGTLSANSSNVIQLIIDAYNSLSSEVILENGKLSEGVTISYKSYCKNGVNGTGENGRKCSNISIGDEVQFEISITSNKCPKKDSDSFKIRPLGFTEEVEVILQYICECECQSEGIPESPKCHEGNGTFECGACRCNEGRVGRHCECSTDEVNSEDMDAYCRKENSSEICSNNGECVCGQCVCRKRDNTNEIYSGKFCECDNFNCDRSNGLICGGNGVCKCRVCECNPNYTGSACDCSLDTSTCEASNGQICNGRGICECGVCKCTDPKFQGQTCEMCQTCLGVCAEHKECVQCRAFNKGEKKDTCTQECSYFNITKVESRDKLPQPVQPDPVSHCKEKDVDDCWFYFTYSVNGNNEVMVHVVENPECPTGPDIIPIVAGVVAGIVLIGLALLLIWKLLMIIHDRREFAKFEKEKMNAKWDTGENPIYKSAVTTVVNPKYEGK
[3] abbreviates: table 13, competition for binding of Ramos cell-derived VLA-4 to immobilized VCAM-1, read-out: ELISA IC50.
[4] abbreviates: table 14, Ramos cells binding to immobilized VCAM-1, read-out: Ramos IC50.
[5] abbreviates: table 11, Examples 151-155, assay not given, values equal Ramos table 14, read-out: IC50.
Where [6] appears, read: table 9, Examples 97-102, assay not given, values equal ELISA table 13, read-out: IC50.
Where [7] appears, read: table 12, Examples 156-160, assay not given, values equal Ramos table 14, read-out: IC50.

T1 sequence (P13612 34-1032): as the sequence (P13612 34-1032) above
T1 sequence (P05556 21-798): as the sequence (P05556 21-798) above

As to `COc1ccc(C(=O)N[C@@H](Cc2ccc(NC(=O)c3c(Cl)cccc3Cl)cc2)C(=O)O)c(Cl)c1` [Example 19], on VLA-4 (α4β1 integrin) [1] (setting [3]), the IC50 is 0.00187 µM.
Regarding “4-[(2S,4R)-3-Acetyl-2-phenyl-4-(3-pyridinylmethyl)-5-oxo-1-imidazolinyl]-N- [(2-chloro-6-methylphenyl)carbonyl]-L-phenylalanine and 4-[(2R,4R)-3-acetyl-2-phenyl-4-(3-pyridinylmethyl)-5-oxo-1-imidazolinyl)-N-[(2-chloro-6-methylphenyl)carbonyl]-L-phenylalanine [Example 171]”, at VLA-4 (α4β1 integrin) [2] (setting [4]), the IC50 came out at 0.0135 µM.
`Cc1cccc(Cl)c1C(=O)N[C@@H](Cc1ccc(N2C(=O)[C@H](C(C)C)N(C)C2=O)cc1)C(=O)O` [Example 80]: the IC50 at VLA-4 worked out at 0.024 µM.
Turning to `O=C(N[C@@H](Cc1ccc(NC(=O)c2c(Cl)cccc2Cl)cc1)C(=O)O)c1ccccc1Cc1ccccc1` [Example 31, 4-[[(2,6-dichlorophenyl)carbonyl]amino]-N-[[(2-phenylmethyl)phenyl]carbonyl]-L-phenylalanine], the IC50 at VLA-4 (α4β1 integrin) [1] (setting [3]) is 0.00051 µM.
In the case of `Cc1cc(C[C@H](NC(=O)c2c(C)cccc2Cl)C(=O)O)ccc1NC(=O)CCc1cccc(O)c1` [Example 120], the IC50 at VLA-4 (α4β1 integrin) [1] (setting [3]) amounted to 0.0045 µM; on VLA-4 (α4β1 integrin) [2] (setting [4]), 0.439 µM.
As to `Cc1cc(C[C@H](NC(=O)c2c(C)cccc2Cl)C(=O)O)ccc1NC(=O)c1cccc([N+](=O)[O-])c1` [Example 122], the IC50 on VLA-4 (α4β1 integrin) [1] (setting [3]) came to 0.00067 µM; at VLA-4 (α4β1 integrin) [2] (setting [4]) it was 0.43 µM.
In the case of `Cc1cccc(Cl)c1C(=O)N[C@@H](Cc1ccc(N2C(=O)[C@@H](CC(C)C)N(C)C2=O)cc1)C(=O)O` [Example 82], at VLA-4, the half-inhibitory concentration (IC50) was 0.056 µM.
On to `Cc1cc(C[C@H](NC(=O)c2c(C)cccc2Cl)C(=O)O)ccc1NC(=O)c1c(Cl)cccc1Cl` [Example 123], for which the concentration for half-maximal inhibition (IC50) on VLA-4 (α4β1 integrin) [1] (setting [3]) is 0.0017 µM; at VLA-4 (α4β1 integrin) [2] (setting [4]), 0.316 µM.
Regarding `CC(C)(C)c1ccccc1C(=O)N[C@@H](Cc1ccc(NC(=O)c2c(Cl)cccc2Cl)cc1)C(=O)O` [Example 17], the IC50 on VLA-4 (α4β1 integrin) [1] (setting [3]) came out at 0.00185 µM.
`Cc1cccc(Cl)c1C(=O)N[C@@H](Cc1ccc(NC(=O)c2sc(C(C)C)nc2C)cc1)C(=O)O` [Example 152]: the 50% inhibitory concentration (IC50) on VLA-4 (α4β1 integrin) [2] (setting [5]) stood at 0.967 µM.
With `Cc1cc(C[C@H](NC(=O)c2c(C)cccc2Cl)C(=O)O)ccc1NC(=O)Cc1cccc(O)c1` [Example 121], the results for the half-inhibitory concentration (IC50) at VLA-4 (α4β1 integrin) [1] (setting [3]) and at VLA-4 (α4β1 integrin) [2] (setting [4]) were 0.0058 µM and 0.515 µM, respectively.
The like results for `COc1ccc(Br)c(C(=O)N[C@@H](Cc2ccc(NC(=O)c3c(C)ccnc3C)cc2)C(=O)O)c1` [Example 108] were, in that order, 0.00063 µM and 0.022 µM.
The compound `Cc1cccc(Cl)c1C(=O)N[C@@H](Cc1ccc(N2C(=O)[C@H](C)N(C)C2=O)cc1)C(=O)O` [Example 79] returned an IC50 against VLA-4 of 0.053 µM.
`Cc1cccc(Cl)c1C(=O)N[C@@H](Cc1ccc(NC(=O)c2nn(-c3ccccc3)nc2C)cc1)C(=O)O` [Example 154]: the IC50 at VLA-4 (α4β1 integrin) [2] (setting [5]) was 2.47 µM.
Take `CSc1ccccc1C(=O)N[C@@H](Cc1ccc(NC(=O)c2c(Cl)cccc2Cl)cc1)C(=O)O` [Example 25]: the IC50 on VLA-4 (α4β1 integrin) [1] (setting [3]) amounted to 0.00042 µM; at VLA-4 (α4β1 integrin) [2] (setting [4]) it was 0.103 µM.
Turning to `CC(=O)N1CN(c2ccc(C[C@H](NC(=O)c3c(C)cccc3Cl)C(=O)O)cc2)C(=O)[C@@H]1CC(C)C` [Example 101], the IC50 at VLA-4 (α4β1 integrin) [1] (setting [6]) was found to be 0.0099 µM.
For `O=C(Nc1ccc(C[C@H](NC(=O)c2c(F)cccc2C(F)(F)F)C(=O)O)cc1)c1c(Cl)cccc1Cl` [Example 16], the concentration for half-maximal inhibition (IC50) on VLA-4 (α4β1 integrin) [1] (setting [3]) was 0.00044 µM.
In the case of `Cc1cccc(Cl)c1C(=O)NC(Cc1ccc(N2C(=O)C3Cc4ccccc4CN3C2=O)cc1)C(=O)O` (stereo not shown) [Example 83], 0.072 µM corresponded to half-maximal inhibition at VLA-4 (IC50).
Regarding `CC(=O)N1[C@H](CC(C)C)C(=O)N(c2ccc(C[C@H](NC(=O)c3c(C)cccc3Cl)C(=O)O)cc2)[C@@H]1c1ccc(O)cc1` [Example 98], the 50% inhibitory concentration (IC50) on VLA-4 (α4β1 integrin) [1] (setting [6]) came out at 0.00235 µM.
For the compound `O=C(Nc1ccc(C[C@H](NC(=O)c2cccc3ccccc23)C(=O)O)cc1)c1c(Cl)cccc1Cl` [Example 15], the figures for the half-inhibitory concentration (IC50) at VLA-4 (α4β1 integrin) [1] (setting [3]) and at VLA-4 (α4β1 integrin) [2] (setting [4]) were 0.0059 µM and 0.0026 µM, respectively.
Consider `CC(=O)N1[C@H](CC(C)C)C(=O)N(c2ccc(C[C@H](NC(=O)c3c(C)cccc3Cl)C(=O)O)cc2)[C@H]1c1ccc(O)cc1` [Example 97], for which, at VLA-4 (α4β1 integrin) [1] (setting [6]), the concentration for half-maximal inhibition (IC50) was 0.00044 µM.
Turning to `CCc1cccc(C)c1C(=O)N[C@@H](Cc1ccc(NC(=O)c2c(Cl)cccc2Cl)cc1)C(=O)O` [Example 92], the IC50 at VLA-4 (α4β1 integrin) [1] (setting [3]) was determined as 0.00042 µM; at VLA-4 (α4β1 integrin) [2] (table 8, Examples 90-95, read-out: IC50 Ramos), 0.01 µM; on VLA-4 (α4β1 integrin) [2] (setting [4]), 0.255 µM.
For `Cc1cc2ncc(C(=O)Nc3ccc(C[C@H](NC(=O)c4c(C)cccc4Cl)C(=O)O)cc3)c(C)n2n1` [Example 155], the half-maximal inhibitory concentration (IC50) at VLA-4 (α4β1 integrin) [2] (setting [5]) was determined as 0.644 µM.
The compound `Cc1cccc(Cl)c1C(=O)N[C@@H](Cc1ccc(N2C(=O)[C@H](Cc3ccccc3)N(C)C2=O)cc1)C(=O)O` [Example 84] had an IC50 against VLA-4 of 0.073 µM.
On to `Cc1cccc(Cl)c1C(=O)N[C@@H](Cc1ccc(NC(=O)c2c(C)noc2C)cc1)C(=O)O` [Example 153], for which the concentration for half-maximal inhibition (IC50) at VLA-4 (α4β1 integrin) [2] (setting [5]) was 0.975 µM.
Regarding `Cc1nn(-c2ccccc2)nc1C(=O)N[C@@H](Cc1ccc(NC(=O)c2c(Cl)cccc2Cl)cc1)C(=O)O` [Example 159], on VLA-4 (α4β1 integrin) [2] (setting [7]), the half-maximal inhibitory concentration (IC50) came to 0.988 µM.
Same read-out and setting: for `Cc1noc(C)c1C(=O)N[C@@H](Cc1ccc(NC(=O)c2c(Cl)cccc2Cl)cc1)C(=O)O` [Example 158] the value was 0.946 µM.
On to `Cc1ccc(Cl)c(C(=O)N[C@@H](Cc2ccc(NC(=O)c3c(Cl)cccc3Cl)cc2)C(=O)O)c1` [Example 23], for which the IC50 at VLA-4 (α4β1 integrin) [1] (setting [3]) came to 0.00048 µM; on VLA-4 (α4β1 integrin) [2] (setting [4]) it was 0.316 µM.
In the case of `O=C(N[C@@H](Cc1ccc(NC(=O)c2c(Cl)cccc2Cl)cc1)C(=O)O)c1cccc(Cl)c1Cl` [Example 20], the 50% inhibitory concentration (IC50) at VLA-4 (α4β1 integrin) [2] (setting [4]) came to 0.00163 µM.
As for `CC(=O)N1[C@H](CC(C)C)C(=O)N(c2ccc(C[C@H](NC(=O)c3c(C)cccc3Cl)C(=O)O)cc2)[C@@H]1C(C)(C)C` [Example 102], the half-inhibitory concentration (IC50) at VLA-4 (α4β1 integrin) [1] (setting [6]) was 0.041 µM.
Regarding `O=C(N[C@@H](Cc1ccc(NC(=O)c2c(Cl)cccc2Cl)cc1)C(=O)O)c1ccc(Br)cc1Cl` [Example 22], on VLA-4 (α4β1 integrin) [2] (setting [4]), the IC50 was found to be 0.00132 µM.
On the same count and under the same terms, for `Cc1cccc(C(=O)N[C@@H](Cc2ccc(NC(=O)c3c(Cl)cccc3Cl)cc2)C(=O)O)c1Cl` [Example 21] the value was 0.00127 µM.
On the same count and under the same terms, for `COc1ccc(Br)c(C(=O)N[C@@H](Cc2ccc(NC(=O)c3c(Cl)cccc3Cl)cc2)C(=O)O)c1` [Example 24] the value was 0.02 µM.

For the origin of these results see US6229011A, “N-aroylphenylalanine derivative VCAM-1 inhibitors” (Hoffman-La Roche Inc., priority 1998, dated 2001).
